For experiment [1], the target named is T1, recombinant thioredoxin reductase 1 (TrxR1) (Homo sapiens, UniProt Q16881).
T1 sequence (Q16881 151-649 limits assumed): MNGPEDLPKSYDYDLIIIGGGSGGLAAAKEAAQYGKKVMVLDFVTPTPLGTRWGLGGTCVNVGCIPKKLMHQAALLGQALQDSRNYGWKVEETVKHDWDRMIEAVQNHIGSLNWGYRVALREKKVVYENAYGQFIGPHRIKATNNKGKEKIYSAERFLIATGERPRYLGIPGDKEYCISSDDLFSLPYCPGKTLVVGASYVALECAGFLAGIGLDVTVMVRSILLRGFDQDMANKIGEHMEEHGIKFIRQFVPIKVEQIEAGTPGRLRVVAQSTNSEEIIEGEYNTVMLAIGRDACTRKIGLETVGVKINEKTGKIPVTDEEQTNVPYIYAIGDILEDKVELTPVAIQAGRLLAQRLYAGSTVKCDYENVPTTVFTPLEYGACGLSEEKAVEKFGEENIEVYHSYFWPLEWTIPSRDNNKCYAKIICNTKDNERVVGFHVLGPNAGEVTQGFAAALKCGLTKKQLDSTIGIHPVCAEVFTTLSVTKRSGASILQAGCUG
Kind of experiment: Inhibition of recombinant TrxR1 (DTNB assay). Type of experiment: biochemical. Conditions: 15 nM TrxR1, 250 μM NADPH, 15 minutes incubation, 2.5 mM DTNB, O.D. at 412 nm; read-out: TrxR inhibition. As for the experimental part: (§1) Small molecule inhibition of recombinant thioredoxin reductase 1 (TrxR1) and gluthathione reductase (GR) was examined in 96-well plate format. 15 nM TrxR1 was incubated in the presence of 250 μM NADPH, 0.1 mg/ml BSA, and various concentrations of the compound of Example 1 (1% DMSO final) in 50 mM Tris (pH 7.5) and 2 mM EDTA buffer for 15 minutes. Following the incubation period, 2.5 mM DTNB was added to each well and the change in O.D. at 412 nm was followed. Percent activity was determined using DMSO vehicle and no TrxR1 (blank) controls. 2 nM GR was incubated in the presence of 250 μM NADPH, 0.1 mg/ml BSA, and various concentrations of compounds (1% DMSO final) in 50 mM Tris (pH 7.5) and 2 mM EDTA buffer for 15 minutes. Following the incubation period, 1 mM GSSG was added to each well and the change in O.D. at 340 nm was followed. Percent activity was determined using DMSO vehicle and no GR (blank) controls.

Experiment [2] concerns the target T2, gluthathione reductase (GR) (Homo sapiens, UniProt P00390).
T2 sequence (P00390 44-522): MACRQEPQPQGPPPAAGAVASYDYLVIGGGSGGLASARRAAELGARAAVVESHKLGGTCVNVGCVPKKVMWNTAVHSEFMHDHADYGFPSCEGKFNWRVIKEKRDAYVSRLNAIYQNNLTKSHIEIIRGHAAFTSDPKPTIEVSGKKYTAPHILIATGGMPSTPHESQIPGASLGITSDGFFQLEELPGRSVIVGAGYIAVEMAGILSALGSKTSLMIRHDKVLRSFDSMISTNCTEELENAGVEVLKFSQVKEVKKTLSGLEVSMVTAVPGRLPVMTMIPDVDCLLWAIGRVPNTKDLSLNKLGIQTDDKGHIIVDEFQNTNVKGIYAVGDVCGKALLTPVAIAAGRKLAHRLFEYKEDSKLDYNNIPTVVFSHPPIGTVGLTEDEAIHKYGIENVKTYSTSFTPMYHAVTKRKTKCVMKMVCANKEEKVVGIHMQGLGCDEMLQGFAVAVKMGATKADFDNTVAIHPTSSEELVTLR
Kind of experiment: Inhibition of recombinant GR (GSSG assay). The format is biochemical. Conditions: 2 nM GR, 250 μM NADPH, 15 minutes incubation, 1 mM GSSG, O.D. at 340 nm. The method, then: as §1

`O=c1c(Cl)c(Cl)cnn1Cc1nnc(-c2ccc(Cl)cc2)o1` [Example 1, 4,5-dichloro-2-((5-(4-chlorophenyl)-1,3,4-oxadiazol-2-yl)methyl)pyridazin-3-one]: the IC50 in experiment [1] was 1850 nM; in experiment [2], greater than 100000 nM.

Values taken from US11110089B2, “Pyridazinones and their use in the treatment of cancer” (THE UNITED STATES OF AMERICA, AS REPRESENTED BY THE …, priority 2015, dated 2021).
